Biological target: human GLP-1R (Homo sapiens, UniProt P43220, G168S)
Experiment: CHO GLP-1R Clone H6 cAMP HTRF agonist assay (Assay 1, high receptor density)
Format: cell-based
Conditions: for EC50: CHO GLP-1R clone H6, cAMP HTRF, geometric mean; for Emax: CHO GLP-1R clone H6, arithmetic mean, relative to saturating GLP-1 (1 μM), read-out: Assay 1 Emax (%)
Source text: In Table 5 and Table 6, assay data are presented to two (2) significant figures as the geometric mean (EC50s) and arithmetic mean (Emax) based on the number of replicates listed (Number). A blank cell means there was no data for that Example or the Emax was not calculated.

human GLP-1R, sequence (P43220 24-463 G168S): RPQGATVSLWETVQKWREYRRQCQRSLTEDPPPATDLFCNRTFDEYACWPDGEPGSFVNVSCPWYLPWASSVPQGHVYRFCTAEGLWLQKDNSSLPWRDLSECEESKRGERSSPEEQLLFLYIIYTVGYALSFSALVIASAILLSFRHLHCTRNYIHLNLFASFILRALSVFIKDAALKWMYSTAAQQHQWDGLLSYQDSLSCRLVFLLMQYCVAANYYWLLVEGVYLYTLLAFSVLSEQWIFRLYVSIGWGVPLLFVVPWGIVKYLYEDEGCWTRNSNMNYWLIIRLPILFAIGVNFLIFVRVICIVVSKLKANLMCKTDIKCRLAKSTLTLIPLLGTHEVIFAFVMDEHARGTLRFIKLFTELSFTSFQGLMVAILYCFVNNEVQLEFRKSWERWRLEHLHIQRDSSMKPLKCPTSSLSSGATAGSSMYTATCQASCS

Compound: COCCn1c(CN2CCC(c3cccc(OCc4ccc(Cl)cc4F)n3)CC2)nc2ccc(C(=O)O)nc21 [Compound 213B, 2-[(4-{6-[(4-chloro-2-fluorobenzyl)oxy]pyridin-2-yl}piperidin-1-yl)methyl]-3-(2-methoxyethyl)-3H-imidazo[4,5-b]pyridine-5-carboxylic acid]
- EC50: 390 nM
- Emax: 82%

Compound: N#Cc1ccc(COc2cccc(C3CCN(Cc4nc5ccc(C(=O)O)nc5n4Cc4ncco4)CC3)n2)c(F)c1 [Compound 214B, 2-[(4-{6-[(4-cyano-2-fluorobenzyl)oxy]pyridin-2-yl}piperidin-1-yl)methyl]-3-(1,3-oxazol-2-ylmethyl)-3H-imidazo[4,5-b]pyridine-5-carboxylic acid]
- Emax: 71%

Compound: Cn1c(CN2CCC(c3cccc(OCc4ccc(C(F)(F)F)cc4F)n3)CC2)nc2ccc(C(=O)O)cc21 [Compound 222B, 2-{[4-(6-{[2-fluoro-4-(trifluoromethyl)benzyl]oxy}pyridin-2-yl)piperidin-1-yl]methyl}-1-methyl-1H-benzimidazole-6-carboxylic acid]
- EC50: 130 nM
- Emax: 72%

Compound: Cn1c(CN2CCC(c3cccc(OCc4ccc(F)cc4F)n3)CC2)nc2ccc(C(=O)O)cc21 [Compound 223B, 2-[(4-{6-[(2,4-difluorobenzyl)oxy]pyridin-2-yl}piperidin-1-yl)methyl]-1-methyl-1H-benzimidazole-6-carboxylic acid]
- EC50: 170 nM
- Emax: 69%

Compound: Cn1c(CN2CCC(c3cccc(OCc4c(F)cccc4F)n3)CC2)nc2ccc(C(=O)O)cc21 [Compound 224B, 2-[(4-{6-[(2,6-difluorobenzyl)oxy]pyridin-2-yl}piperidin-1-yl)methyl]-1-methyl-1H-benzimidazole-6-carboxylic acid]
- EC50: 1200 nM
- Emax: 53%

Compound: Cc1ccccc1COc1cccc(C2CCN(Cc3nc4ccc(C(=O)O)cc4n3C)CC2)n1 [Compound 230B, 1-methyl-2-[(4-{6-[(2-methylbenzyl)oxy]pyridin-2-yl}piperidin-1-yl)methyl]-1H-benzimidazole-6-carboxylic acid]
- EC50: 1700 nM
- Emax: 80%

Compound: Cn1c(CN2CCC(c3cccc(OCc4ccc(C#N)cc4)n3)CC2)nc2ccc(C(=O)O)cc21 [Compound 234B, 2-[(4-{6-[(4-cyanobenzyl)oxy]pyridin-2-yl}piperidin-1-yl)methyl]-1-methyl-1H-benzimidazole-6-carboxylic acid]
- EC50: 290 nM
- Emax: 64%

Compound: CC1(C)CC(Cn2c(CN3CCC(c4cccc(OCc5ccc(Cl)cc5F)n4)CC3)nc3ccc(C(=O)O)cc32)O1 (stereo not drawn) [Compound 235B, 2-[(4-{6-[(4-chloro-2-fluorobenzyl)oxy]pyridin-2-yl}piperidin-1-yl)methyl]-1-[(4,4-dimethyloxetan-2-yl)methyl]-1H-benzimidazole-6-carboxylic acid]
- EC50: 390 nM
- Emax: 72%

Compound: CC(C)n1cnnc1Cn1c(CN2CCC(c3cccc(OCc4ccc(Cl)cc4F)n3)CC2)nc2ccc(C(=O)O)cc21 [Compound 236B, 2-[(4-{6-[(4-chloro-2-fluorobenzyl)oxy]pyridin-2-yl}piperidin-1-yl)methyl]-1-{[4-(propan-2-yl)-4H-1,2,4-triazol-3-yl]methyl}-1H-benzimidazole-6-carboxylic acid]
- EC50: 1300 nM
- Emax: 79%

Compound: CCc1noc(Cn2c(CN3CCC(c4cccc(OCc5ccc(Cl)cc5F)n4)CC3)nc3ccc(C(=O)O)cc32)n1 [Compound 264B, 2-[(4-{6-[(4-chloro-2-fluorobenzyl)oxy]pyridin-2-yl}piperidin-1-yl)methyl]-1-[(3-ethyl-1,2,4-oxadiazol-5-yl)methyl]-1H-benzimidazole-6-carboxylic acid]
- EC50: > 10000 nM
- Emax: 85%

Compound: CC1(Cn2c(CN3CCC(c4cccc(OCc5ccc(Cl)cc5F)n4)CC3)nc3ccc(C(=O)O)cc32)CCO1 (stereo not drawn) [Compound 265B, 2-[(4-{6-[(4-chloro-2-fluorobenzyl)oxy]pyridin-2-yl}piperidin-1-yl)methyl]-1-[(2-methyloxetan-2-yl)methyl]-1H-benzimidazole-6-carboxylic acid]
- EC50: > 15000 nM
- Emax: 100%

Compound: C[C@H]1CN(c2cccc(OCc3ccc(C#N)cc3F)n2)CCN1Cc1nc2ccc(C(=O)O)cc2n1C[C@H]1CCOC1 [Compound 267B, 2-{[(2S)-4-{6-[(4-cyano-2-fluorobenzyl)oxy]pyridin-2-yl}-2-methylpiperazin-1-yl]methyl}-1-[(3R)-tetrahydrofuran-3-ylmethyl]-1H-benzimidazole-6-carboxylic acid]
- EC50: > 19000 nM
- Emax: 100%

Compound: O=C(O)c1ccc2nc(CN3CCC(c4cccc(OCc5ccc(Cl)cc5F)n4)CC3)n([C@@H]3CCOC3)c2c1 [Compound 268B, 2-[(4-{6-[(4-chloro-2-fluorobenzyl)oxy]pyridin-2-yl}piperidin-1-yl)methyl]-1-[(3R)-tetrahydrofuran-3-yl]-1H-benzimidazole-6-carboxylic acid]
- EC50: > 20000 nM

Compound: CCn1cncc1Cn1c(CN2CCN(c3cccc(OCc4ccc(C#N)cc4F)n3)C[C@@H]2C)nc2ccc(C(=O)O)cc21 [Compound 269B, 2-{[(2S)-4-{6-[(4-cyano-2-fluorobenzyl)oxy]pyridin-2-yl}-2-methylpiperazin-1-yl]methyl}-1-[(1-ethyl-1H-imidazol-5-yl)methyl]-1H-benzimidazole-6-carboxylic acid]
- EC50: > 20000 nM

Compound: O=C(O)c1ccc2nc(CN3CCC(c4cccc(OCc5ccc(Cl)cc5F)n4)CC3)n(Cc3cnoc3)c2c1 [Compound 270B, 2-[(4-{6-[(4-chloro-2-fluorobenzyl)oxy]pyridin-2-yl}piperidin-1-yl)methyl]-1-(1,2-oxazol-4-ylmethyl)-1H-benzimidazole-6-carboxylic acid]
- EC50: > 20000 nM

Compound: O=C(O)c1ccc2nc(CN3CCC(c4cccc(OCc5ccc(Cl)cc5F)n4)CC3)n(Cc3ncon3)c2c1 [Compound 271B, 2-[(4-{6-[(4-chloro-2-fluorobenzyl)oxy]pyridin-2-yl}piperidin-1-yl)methyl]-1-(1,2,4-oxadiazol-3-ylmethyl)-1H-benzimidazole-6-carboxylic acid]
- EC50: > 20000 nM

Compound: O=C(O)c1ccc2nc(CN3CCC(c4cccc(OCc5ccc(Cl)cc5F)n4)CC3)n([C@H]3CCOC3)c2c1 [Compound 272B, 2-[(4-{6-[(4-chloro-2-fluorobenzyl)oxy]pyridin-2-yl}piperidin-1-yl)methyl]-1-[(3S)-tetrahydrofuran-3-yl]-1H-benzimidazole-6-carboxylic acid]
- EC50: > 20000 nM

Compound: CCn1cncc1Cn1c(CN2CCC(c3cccc(OCc4ccc(C#N)cc4F)n3)CC2)nc2ccc(C(=O)O)nc21 [Compound 273B, 2-[(4-{6-[(4-cyano-2-fluorobenzyl)oxy]pyridin-2-yl}piperidin-1-yl)methyl]-3-[(1-ethyl-1H-imidazol-5-yl)methyl]-3H-imidazo[4,5-b]pyridine-5-carboxylic acid]
- EC50: > 20000 nM

Compound: Cn1cncc1Cn1c(CN2CCC(c3cccc(OCc4ccc(C#N)cc4F)n3)CC2)nc2ccc(C(=O)O)nc21 [Compound 274B, 2-[(4-{6-[(4-cyano-2-fluorobenzyl)oxy]pyridin-2-yl}piperidin-1-yl)methyl]-3-[(1-methyl-1H-imidazol-5-yl)methyl]-3H-imidazo[4,5-b]pyridine-5-carboxylic acid]
- EC50: > 20000 nM

Compound: Cn1cnc(CCn2c(CN3CCC(c4cccc(OCc5ccc(Cl)cc5F)n4)CC3)nc3ccc(C(=O)O)cc32)c1 [Compound 276B, 2-[(4-{6-[(4-chloro-2-fluorobenzyl)oxy]pyridin-2-yl}piperidin-1-yl)methyl]-1-[2-(1-methyl-1H-imidazol-4-yl)ethyl]-1H-benzimidazole-6-carboxylic acid]
- EC50: > 20000 nM

Compound: CC(F)(F)Cn1c(CN2CCC(c3cccc(OCc4ccc(Cl)cc4F)n3)CC2)nc2ccc(C(=O)O)cc21 [Compound 302B, 2-[(4-{6-[(4-chloro-2-fluorobenzyl)oxy]pyridin-2-yl}piperidin-1-yl)methyl]-1-(2,2-difluoropropyl)-1H-benzimidazole-6-carboxylic acid]
- EC50: 130 nM
- Emax: 80%

Compound: O=C(O)c1ccc2nc(CN3CCC(c4cccc(OCc5ccc(Cl)cc5F)n4)CC3)n(CCn3cccn3)c2c1 [Compound 303B, 2-[(4-{6-[(4-chloro-2-fluorobenzyl)oxy]pyridin-2-yl}piperidin-1-yl)methyl]-1-[2-(1H-pyrazol-1-yl)ethyl]-1H-benzimidazole-6-carboxylic acid]
- EC50: 170 nM

Compound: Cc1noc(CCn2c(CN3CCC(c4cccc(OCc5ccc(Cl)cc5F)n4)CC3)nc3ccc(C(=O)O)cc32)n1 [Compound 304B, 2-[(4-{6-[(4-chloro-2-fluorobenzyl)oxy]pyridin-2-yl}piperidin-1-yl)methyl]-1-[2-(3-methyl-1,2,4-oxadiazol-5-yl)ethyl]-1H-benzimidazole-6-carboxylic acid]
- EC50: 190 nM
- Emax: 74%

Compound: O=C(O)c1ccc2nc(CN3CCC(c4cccc(OCc5ccc(Cl)cc5F)n4)CC3)n(CCN3CCCOC3=O)c2c1 [Compound 305B, 2-[(4-{6-[(4-chloro-2-fluorobenzyl)oxy]pyridin-2-yl}piperidin-1-yl)methyl]-1-[2-(2-oxo-1,3-oxazinan-3-yl)ethyl]-1H-benzimidazole-6-carboxylic acid]
- EC50: 190 nM
- Emax: 86%

Compound: Cn1cc(CCn2c(CN3CCC(c4cccc(OCc5ccc(Cl)cc5F)n4)CC3)nc3ccc(C(=O)O)cc32)cn1 [Compound 307B, 2-[(4-{6-[(4-chloro-2-fluorobenzyl)oxy]pyridin-2-yl}piperidin-1-yl)methyl]-1-[2-(1-methyl-1H-pyrazol-4-yl)ethyl]-1H-benzimidazole-6-carboxylic acid]
- EC50: 210 nM
- Emax: 77%

Compound: Cn1ncnc1Cn1c(CN2CCC(c3cccc(OCc4ccc(Cl)cc4F)n3)CC2)nc2ccc(C(=O)O)cc21 [Compound 308B, 2-[(4-{6-[(4-chloro-2-fluorobenzyl)oxy]pyridin-2-yl}piperidin-1-yl)methyl]-1-[(1-methyl-1H-1,2,4-triazol-5-yl)methyl]-1H-benzimidazole-6-carboxylic acid]
- EC50: 290 nM
- Emax: 74%

Reference: patent US20250235460A1, “COMBINATION THERAPY USING GLUCOSE-DEPENDENT INSULINOTROPIC POLYPEPTIDE RECEPTOR ANTAGONIST COMPOUNDS AND GLP-1 RECEPTOR AGONIST COMPOUNDS” (Pfizer Inc., priority 2024, published 2025)
